# Key:
# [1] = literature, Eur J Pharmacol 446 (2002) 25-36; cited from earlier work
# hippocampal neurons [2] = assay: Staurosporine (STS)-induced apoptosis in cultured hippocampal neurons, Hoechst 33258 nuclear staining; format: cell-based, rat; conditions: 10 μM enantiomer added before STS 200 nM; apoptotic nuclei quantified 18 h after exposure; vs STS-treated controls (FIG. 1)
# Procedure: (§1) Neuronal cultures. Mixed primary cultures of hippocampal neurons and glial cells were prepared from neonatal Fischer 344 rats as described in Brain Research 1717 (1996) 44-54. Experiments were carried out after 10 days in culture. The NMDA antagonist memantine (Merz, Germany) and clenbuterol were applied 1 h or 5 h before exposure of the cells to glutamate (500 μmol/L, 1 h), respectively. For induction of excitotoxic cell death, medium (conditioned medium) was collected and glutamate-containing medium was added, and then exchanged again after 1 h by the conditioned ? enantiomeres were present in the culture medium also during and after exposure to glutamate. For induction of apoptosis, neurons were exposed to staurosporine (STS, 200 nmol/L, Sigma) […]. Cell death was determined by the trypan blue exclusion method or after staining the nuclei with the DNA-binding fluorochrom Hoechst 33258 as in Brain Research 1717 (1996) 44-54 and in STROKE 2004, 35: 1197-1202.
# The protective effects of the clenbuterol enantiomers in cultured neurons exposed to STS (200 nM) which induced apoptosis or glutamate (500 μM) which induced ecitotoxic cell death with morphological features of necrosis. The Clenbuterol enantiomeres were added to the culture medium at a concentration of 10 μM h before the onset of apoptotic or excitotoxic stress. […]
# hippocampal neurons [3] = assay: Glutamate-induced excitotoxic cell death in cultured hippocampal neurons, trypan blue exclusion; format: cell-based, rat; conditions: 10 μM, glutamate 500 μM for 1 h; for protection of neurons against glutamate excitotoxic insult: trypan blue-stained cultures 18 h after exposure (FIG. 2)
# Procedure: as §1
# The protective effects of the clenbuterol enantiomers in cultured neurons exposed to STS (200 nM) which induced apoptosis or glutamate (500 μM) which induced ecitotoxic cell death with morphological features of necrosis. The Clenbuterol enantiomeres were added to the culture medium at a concentration of 10 μM h before the onset of apoptotic or excitotoxic stress. […] Further, it was investigated whether such differences in the protective effect of the clenbuterol enantiomers could also be observed in a paradigm of necrotic cell death induced by glutamate.
# rat uterus = conditions: Clenbuterol isomers; literature; cited from earlier work
# [4] = literature, Eur J Pharmacol 117 (1985) 127-129; cited from earlier work
Structure (SMILES),effects in preclinical models of neuroprotection [1],STS-induced neuronal cell death (apoptotic nuclei) (hippocampal neurons [2]),protection of neurons against glutamate excitotoxic insult (hippocampal neurons [3]),relaxant response in rat uterus (rat uterus),activity in psychopharmacological tests (CNS-effect) [4],number of trypan blue positive neurons (hippocampal neurons [3]; 18 h after exposure)
"CC(C)(C)NCC(O)c1cc(Cl)c(N)c(Cl)c1 (racemic) [racemic Clenbuterol, Clenbuterol]",positive effects,–,–,–,–,–
CC(C)(C)NC[C@H](O)c1cc(Cl)c(N)c(Cl)c1 [R-clenbuterol],–,did not affect STS-induced apoptosis,did not show any protective effect,shows the effect,based only on the (−)-enantiomer,–
CC(C)(C)NC[C@@H](O)c1cc(Cl)c(N)c(Cl)c1 [S-Clenbuterol],–,significantly attenuated STS-induced neuronal cell death,significantly protected the neurons against the excitotoxic insult,not involved in the effects,did not show any CNS-effect,reduced the number of trypan blue positive neurons to control levels

# Source: US20100240764A1, “Use of S-Clenbuterol” (EUCRO EUROPEAN CONTRACT RESEARCH GMBH & CO. KG, priority 2005, published 2010)
